Here are results for 12 compounds from patent publication US6057311A, “Benzodiazonine derivatives binding to cholecystokinin or gastrin receptors” (James Black Foundation Limited, priority 1996, dated 2000).

For one assay, the target named is T1, CCKA (Cavia porcellus, UniProt Q63931).
T1 construct: The pancreatata were removed from male guinea-pigs; from tissue; host or cells: pancreas of male Dunkin Hartley guinea pigs, membranes
T1 sequence (Q63931 1-430): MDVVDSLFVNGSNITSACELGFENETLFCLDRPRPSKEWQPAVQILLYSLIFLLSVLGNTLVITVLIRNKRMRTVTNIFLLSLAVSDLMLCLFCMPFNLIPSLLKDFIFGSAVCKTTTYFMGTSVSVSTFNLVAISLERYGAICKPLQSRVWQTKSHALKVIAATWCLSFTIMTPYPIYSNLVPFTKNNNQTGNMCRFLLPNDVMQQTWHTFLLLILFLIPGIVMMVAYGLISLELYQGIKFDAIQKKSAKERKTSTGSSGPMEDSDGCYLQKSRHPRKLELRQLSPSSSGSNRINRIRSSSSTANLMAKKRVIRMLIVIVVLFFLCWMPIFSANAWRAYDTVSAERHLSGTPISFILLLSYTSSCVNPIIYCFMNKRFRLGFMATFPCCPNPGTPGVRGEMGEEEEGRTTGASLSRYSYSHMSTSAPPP
Description: CCKA binding assay, guinea pig pancreas membranes ([125I]-CCK8(S)). The conditions noted are these: [125I]-CCK8(S) 200 pM, 0.375 μM PD134,308, 150 min at 21±3° C.; for Ki: pH 7.2, read-out: pKi (Guinea pig pancreas) (converted). The gist of the method: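 Guinea-pig pancreatic membranes (1 mg/ml original wet weight, containing 0.375 μM PD134,308) were incubated 150 min at 21±3 °C in HEPES pH 7.2 with [125I]-CCK8(S), added at 200 pM, and competitor. Non-specific binding used L-364,718 (100 nM added). Bound tracer was filtered on GF/B and gamma-counted.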

Another assay has as its target T2, CCKB receptor (Mus musculus, UniProt P56481).
T2 construct: The cortex was dissected, weighed and homogenised in 40 ml ice-cold buffer; tissue Charles River (animals); host or cells: cerebral cortex of male CD1 mice, membranes
T2 sequence (P56481 1-453): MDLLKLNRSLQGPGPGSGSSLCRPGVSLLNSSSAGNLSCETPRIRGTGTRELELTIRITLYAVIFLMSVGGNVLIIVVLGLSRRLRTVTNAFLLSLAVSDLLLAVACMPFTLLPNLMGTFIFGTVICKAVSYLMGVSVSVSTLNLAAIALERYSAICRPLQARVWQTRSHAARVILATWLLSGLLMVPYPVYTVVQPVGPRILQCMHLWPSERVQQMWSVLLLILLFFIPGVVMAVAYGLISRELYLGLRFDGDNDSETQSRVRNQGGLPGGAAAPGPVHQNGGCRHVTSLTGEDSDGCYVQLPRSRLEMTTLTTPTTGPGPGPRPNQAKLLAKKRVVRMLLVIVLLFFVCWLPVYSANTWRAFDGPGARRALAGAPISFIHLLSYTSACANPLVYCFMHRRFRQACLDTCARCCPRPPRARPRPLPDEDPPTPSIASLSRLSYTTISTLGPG
Put plainly: radioligand binding assay at the CCKB receptor in mouse cortical membranes ([125I]-CCK8S). The settings on record: [125I]-CCK8S 200 pM, 150 min at 21±3° C.; for Ki: pH 7.2, read-out: pKi (Mouse cortex) (converted). The gist of the method: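 Male CD1 mouse cortical membranes (2 mg/ml original wet weight) were incubated 150 min at 21±3 °C in HEPES buffer pH 7.2 (130 mM NaCl, 4.7 mM KCl, 5 mM MgCl2, 1 mM EDTA, bacitracin) with [125I]-CCK8S and competitor. Non-specific binding was defined with L-365,260; bound label was measured by GF/B filtration and gamma counting.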

Consider `CC1CCN(C(=O)Nc2ccc(Cl)c(Cl)c2)CC(=O)N(Cc2ccccc2)c2ccccc21` (stereo not drawn) [Example 44, 1-benzyl-4-(3,4-dichlorophenyi)carbamyl-7-methyl-2-oxo-2,3,4,5,6,7-hexahydro-1H-1,4-benzodiazonine], for which the Ki at CCKA was 0.158 µM; at CCKB receptor, 3.16 µM.
As to `CC1CCN(C(=O)Nc2ccc3ccccc3c2)CC(=O)N(Cc2ccccc2)c2ccccc21` (stereo not drawn) [Example 45, 1-benzyl-7-methyl-4-(2-naphthyl)carbamyl-2-oxo-2,3,4,5,6,7-hexahydro-1H-1,4-benzodiazonine], the results for the Ki at CCKA and on CCKB receptor were 0.0794 µM and 10 µM, respectively.
As to `O=C(OCc1ccccc1)c1cccc(NC(=O)N2CCC(=O)c3ccccc3N(Cc3ccccc3)C(=O)C2)c1` [Example 46], the Ki at CCKA was 3.98 µM; at CCKB receptor, 10 µM.
Regarding `Cc1cccc(NC(=O)N2CCC(c3ccccc3)c3ccccc3N(Cc3ccccc3)C(=O)C2)c1` (stereo not drawn) [Example 50, 1-benzyl-7-phenyl-4-(3-methylphenyl)carbamyl-2-oxo-2,3,4,5,6,7-hexahydro-1H-1,4-benzodiazonine], the “pKi (Guinea pig pancreas)” value at CCKA (pH 7.2) was 5.9. In addition, at CCKB receptor (pH 7.2), the “pKi (Mouse cortex)” value worked out at 5.8.
As for `CCC1CCN(C(=O)Nc2cccc(C)c2)CC(=O)N(Cc2ccccc2)c2ccccc21` (stereo not drawn) [Example 51, 1-benzyl-7-ethyl-4-(3-methylphenyl)carbamyl-2-oxo-5,2,3,4,5,6,7-hexahydro-1H-1,4-benzodiazonine], the figures for the Ki at CCKA and on CCKB receptor were 0.794 µM and 3.16 µM, respectively.
For `CCC1CCN(C(=O)Nc2ccc(Cl)c(Cl)c2)CC(=O)N(Cc2ccccc2)c2ccccc21` (stereo not drawn) [Example 52, 1-benzyl-7-ethyl-4-(3,4-dichlorophenyl)carbamyl-2-oxo-2,3,4,5,6,7-hexahydro-1H-1,4-benzodiazonine], in that order: 0.2 µM and 10 µM.
The like results for `COc1cccc(NC(=O)N2CCCc3ccccc3N(CC(=O)OC(C)(C)C)C(=O)C2)c1` [Example 55, 1-tert-butyloxycarbonylmethyl-4-(3-methoxyphenyl)carbamyl-2-oxo-2,3,4,5,6,7-hexahydro-1H-1,4-benzodiazonine] were, in that order, 1 µM and 10 µM.
Consider `CC(=O)N1[C@H](CC23CC4CC(CC(C4)C2)C3)C(=O)N(Cc2ccc(F)cc2)c2ccccc2C(=O)C[C@H]1C(=O)NCC(=O)O` [Example 58, (3R,5S)-4-acetyl-3-(1-adamantyl)methyl-1-(4-fluorobenzyl)-5-carboxymethylaminocarbonyl-2,7-dioxo-2,3,4,5,6,7-hexahydro-1H-1,4-benzodiazonine], for which the figures for the Ki on CCKA and on CCKB receptor were 7.94 µM and 2 µM, respectively.
With `CC(=O)N1[C@H](CC23CC4CC(CC(C4)C2)C3)C(=O)N(Cc2ccccc2F)c2ccccc2C(=O)C[C@H]1C(=O)NCC(=O)O` [Example 59, (3R,5S)-4-acetyl-3-(1-adamantyl)methyl-1-(2-fluorobenzyl)-5-carboxymethyaminocarbonyl-2,7-dioxo-2,3,4,5,6,7-hexahydro-1H-1,4-benzodiazonine], the Ki on CCKA was 10 µM; on CCKB receptor, 0.1 µM.
Take `CC(=O)N1[C@H](CC23CC4CC(CC(C4)C2)C3)C(=O)N(Cc2cccc(F)c2)c2ccccc2C(=O)C[C@H]1C(=O)NCC(=O)O` [Example 60, (3R,5S)-4-acetyl-3-(1-adamantyl)methyl-1-(3-fluorobenzyl)-5-carboxymethylaminocarbonyl-2,7-dioxo-2,3,4,5,6,7-hexahydro-1H-1,4-benzodiazonine]: the results for the Ki on CCKA and on CCKB receptor were 10 µM and 0.2 µM, respectively.
Consider `CC(=O)N1[C@H](CC23CC4CC(CC(C4)C2)C3)C(=O)N(Cc2ccccc2Cl)c2ccccc2C(=O)C[C@H]1C(=O)NCC(=O)O` [Example 63, (3R,5S)-4-acetyl-3-(1-adamantyl)methyl-1-(2-chlorobenzyl)-5-carboxymethylaminocarbonyl-2,7-dioxo-2,3,4,5,6,7-hexahydro-1H-1,4-benzodiazonine], for which the figures for the Ki at CCKA and at CCKB receptor were 10 µM and 0.1 µM, respectively.
As to `CC(=O)N1[C@H](CC23CC4CC(CC(C4)C2)C3)C(=O)N(Cc2ccccc2F)c2ccccc2C(=O)C[C@H]1C(=O)N[C@@H](C)C(=O)O` [Example 64, (3R,5S)-4-acetyl-3-(1-adamantyl)methyl-1-(2-fluorobenzyl)-5-[(1S)-carboxy]ethylaminocarbonyl-2,7-dioxo-2,3,4,5,6,7-hexahydro-1H-1,4-benzodiazonine], the figures for the Ki on CCKA and on CCKB receptor were 25.1 µM and 0.158 µM, respectively.
